# Data published in patent US20260183225A1, “PHARMACEUTICAL COMPOSITION FOR TOPICAL ADMINISTRATION COMPRISING A VOLATILE ANAESTHETIC” (LABORATORIOS GEBRO PHARMA, S.A., priority 2022, published 2026).
# Experiments:
# [1] = test system: sciatic nerve ligation or chronic constriction injury (CCI) model; assay: von Frey filament test (mechanical allodynia), CCI model, subcutaneous injection; assay type: in vivo, rat
# Protocol: (§1) Male Wistar rats with a body weight between 250 and 300 g were kept in standard laboratory conditions (12 h light/dark cycles, temperature 21° C.). Four groups were formed and treated once a day with a composition comprising an active ingredient: • Group 1 was administered 10% of LGP10-16. • Group 2 was administered 25% of LGP10-16. • Group 3 was administered 100% of LGP10-16. • A control group 4 was administered saline solution. Each group consisted of 15 rats.
# The sciatic nerve ligation or chronic constriction injury (CCI) model for as described by Bennett and Xie was used. The sciatic nerve ligation model generates a peripheral nerve injury that causes the appearance of mechanical and thermal hyperalgesia, mechanical allodynia and sometimes signs of spontaneous pain can be observed, by the spontaneous 5 elevation of the paw. All these symptoms appear one week after nerve ligation and can last more than two months. The added value of the model is that each animal can be its own control, since the contralateral paw, not being injured, reflects normal values. […]
# mouse vas deferens = mouse vas deferens preparation, inhibition of contractile activity
# Protocol: In a second step, the effect of different concentrations of LGP10-16 on preparations of mouse vas deferens and guinea-pig ileum LMMP was studied.
# After adding a concentration of the drug to the organ bath, it is left for 9 minutes to test its effect, after which the preparation is washed. At the end of the first concentration-response curve (left bars), it is left for 90 mins and the second curve is created (right bars).
# [2] = test system: sciatic nerve ligation or chronic constriction injury (CCI) model; assay: rodent pincher test (mechanical hyperalgesia), CCI model, subcutaneous injection; assay type: in vivo, rat; details: s.c. once a day; 10%, 25% and 100% LGP10-16
# Protocol: as §1
# The sciatic nerve ligation or chronic constriction injury (CCI) model for as described by Bennett and Xie was used. The sciatic nerve ligation model generates a peripheral nerve injury that causes the appearance of mechanical and thermal hyperalgesia, mechanical allodynia and sometimes signs of spontaneous pain can be observed, by the spontaneous 5 elevation of the paw. All these symptoms appear one week after nerve ligation and can last more than two months. The added value of the model is that each animal can be its own control, since the contralateral paw, not being injured, reflects normal values.
# Mechanical hyperalgesia was tested in the rodent pincher test. The rodent pincher algometer allows calibrated forceps to induce quantifiable mechanical stimulation in the animal. The pressure is applied in the “inter-digital” region. […]
# Male Wistar rats = assay: healing and local tolerability after subcutaneous injection in CCI rats; assay type: in vivo, rat
# Protocol: as §1
# guinea-pig ileum LMMP = guinea-pig ileum LMMP preparation, inhibition of contractile activity
# From the text: In a second step, the effect of different concentrations of LGP10-16 on preparations of mouse vas deferens and guinea-pig ileum LMMP was studied. […] In the case of this preparation, after washing, the curve has the same appearance, and the LGP10-16 activity is the same in both curves. To further investigate these differences, the battery of guinea-pig ileum experiments was repeated, this time without washing between the two curves, to see if the effect changed in any way. […] This is a clear synergic effect, as a result of the continued presence of LGP10-16 in the bath.
# [3] = test system: sciatic nerve ligation or chronic constriction injury (CCI) model; assay: conditioned place preference (CPP) test, spontaneous pain, CCI model; assay type: in vivo, rat; details: LGP10-16 25%; day 14 and day 21
# From the text: The conditioned place preference (CPP) test assesses emotional responses; it is based on the evaluation of an associated learning behaviour in response to a new aversive environment. The CPP apparatus (70×30×30 cm) is divided into 3 compartments: two test compartments of identical dimensions and a third one considered as a neutral zone, which is narrower. The two test compartments have different visual and tactile characteristics (colour and texture of the walls and floor), so that the animal can differentiate them well and can be isolated by movable doors, so that communication between the three compartments can be allowed or blocked. On the pre-conditioning day, the animal was allowed to roam freely in the three compartments for 30 min, and the time spent in each compartment was measured ([…] that spend more than 60% in one compartment were excluded).
# On conditioning days, animals were administered the drug and confined for 15 min in one of the test compartments (always in the same compartment) in order to associate the drug administration to that area. This conditioning procedure was repeated for each administration of the drug. […] The CPP value is expressed as the difference between the […]. […]
# A delta nerve fibres = assay: isolated nerve fibre model (electrophysiology of A delta fibres)
# Protocol: In a first step, an isolated nerve fibre model was used and the effect of a 25% dilution (nutrient solution) of LGP10-16 on the different electrophysiological variables of the A delta nerve fibres was evaluated. The stimulated fibres from the A delta type correspond to nociceptive sensory fibres. 250 μl of LGP10-16 and 750 μl of nutrient solution were used in this test.
# [4] = maximum concentration 25%, second curve
structure (smiles),measurement,setting,value
"FCOC(C(F)(F)F)C(F)(F)F [LGP10-16, Sevoflurane]",difference with respect to the control (von Frey),"[1]; from the first run at day 7, all doses (10%, 25%, 100%)",statistically significant differences
same,antiallodynic effect (von Frey),"[1]; s.c. once a day, 10%, 25% and 100% LGP10-16",dose- and time-dependent antiallodynic effect
same,recovery of contractile capacity after washing after the first curve,"mouse vas deferens; 25%, washed after first curve",around 75%
same,Emax,"mouse vas deferens; Mus musculus, 25%, washed after second curve, read-out: contractile activity after washing after the second curve, of maximum response",50%
same,persistence of the effect after washing,mouse vas deferens; after changing the nutrient solution,maintained even 90 minutes after washing the preparation
same,inhibition of the contractile response,"mouse vas deferens; concentrations from 1% to 25% added to the bath, 9 minutes",concentration-dependent inhibition
same,inhibition at the end of the first curve,mouse vas deferens; maximum concentration 25%,55%
same,inhibition at the end of the second curve,mouse vas deferens; [4],85%
same,antihyperalgesic effect (rodent pincher),[2],dose and time-dependent
same,effect on healing,"Male Wistar rats; concentrations of 10% and 25%, s.c.",not negatively affected
same,local adverse findings,"Male Wistar rats; group 3, 100% LGP10-16, s.c.",skin irritation and blistering
same,side effects in animal models,Male Wistar rats; summary statement,no relevant side effects
same,effect when the preparation was not washed between the two curves,"guinea-pig ileum LMMP; 1% to 25%, without washing, more inhibitory at intermediate doses",somewhat greater
same,recovery of contractile capacity after washing after the first curve,"guinea-pig ileum LMMP; 25%, washed after first curve",100%
same,recovery of function after washing after the second curve,"guinea-pig ileum LMMP; 25%, washed after second curve",100%
same,inhibition of functional activity,guinea-pig ileum LMMP; concentration of 10% and 25%,complete (and reversible) inhibition
same,inhibition at the end of the first curve,"guinea-pig ileum LMMP; increasing concentrations 1% to 25%, maximum 25%",100%
same,inhibition at the end of the second curve,guinea-pig ileum LMMP; [4],100%
same,time spent in the compartment associated with drug administration (CPP),[3],spent more time in the room associated with drug administration
same,reversibility of the effect,A delta nerve fibres; 25% dilution,reversible
same,effect on nerve fibre firing capacity,"A delta nerve fibres; 25% dilution in nutrient solution, increasing pressure stimulus",inhibition of the nerve fibre firing capacity
same,duration of the effect after a single application,"A delta nerve fibres; 25% dilution, maintained after washing the fibre",up to 90 minutes
same,effect level reached with a 25% solution,A delta nerve fibres; 25% solution,maximum effect was reached
